From patent publication US20110263539A1, “SHIP 1 MODULATOR COMPOUNDS” (THE UNIVERSITY OF BRITISH COLUMBIA, priority 2006, published 2011)

Key:
SHIP enzyme = test: In vitro SHIP enzyme assay (Assay 1); format: biochemical; conditions: 100 μM inositol-1,3,4,5-tetrakisphosphate, Malachite Green; also: key: a ‘+’ indicates a positive result for desired activity; a ‘−’ indicates a negative result for desired activity
Description: Assay 1) In vitro testing in a SHIP enzyme assay. Test compounds were dissolved in a suitable solvent (e.g. EtOH, DMSO and others) and diluted into aqueous buffer (20 mM Tris HCl, pH 7.5 and 10 mM MgCl2). SHIP enzyme assays were performed in 96-well microtitre plates with 10 ng of enzyme/well in a total volume of 25 μL of 20 mM Tris HCl, pH 7.5 and 10 mM MgCl2. SHIP enzyme was incubated with test extracts (provided in solvent) or vehicle for 15 min at 23° C. before the addition of 100 μM inositol-1,3,4,5-tetrakisphosphate (Echelon Biosciences Inc, Salt Lake City, Utah). After 20 min at 37° C. and the amount of inorganic phosphate released assessed by the addition of Malachite Green reagent and absorbance measurement at 650 nm.
For in vitro testing in the SHIP enzyme assay, AQX-016A and Compound 100 were dissolved in EtOH and diluted into aqueous buffer (20 mM Tris HCl, pH 7.5 and 10 mM MgCl2). The actual concentration of drug in solution was determined by optical density measurement at 280 nm (λmax for both compounds) after high speed centrifugation at 14 000×g for 30 min to remove precipitated drug. For testing on cells, compounds were formulated in the carrier cyclodextrin (Cyclodex Technologies, High Springs, Fla.) at 6 mM (2 mg/mL). For oral administration to animals, compounds were dissolved in 100% cremophore EL (Sigma-Aldrich Canada, Oakville, Ontario) at 150 mM (50 mg/mL) prior to dilution to 6 mM in phosphate buffer saline. However, while these compounds caged in cyclodextrin or formulated in cremophore EL micelles were very soluble in aqueous solution, they could not be used in the SHIP enzyme assays because of interference from both cyclodextrin and cremophore EL.
N-terminal His6 tagged SHIP enzyme was expressed in mammalian 293T cells by transient transfection with pME18S-His-SHIP plasmid and purified to >95% homogeneity by Ni-chelating bead chromatography (Qiagen, Mississauga, Ontario). Recombinant SHIP C2 domain (amino acid residues 725 to 863) was expressed in E. coli transformed with a pET28C expression vector constructed as described below. Recombinant protein purified from the cell lysates by Nichelating bead chromatography was >95% pure.
In vitro SHIP enzyme assay. SHIP enzyme assays were performed in 96-well microtitre plates with 10 ng of enzyme/well in a total volume of 25 μL of 20 mM Tris HCl, pH 7.5 and 10 Mm MgCl2. SHIP enzyme was incubated with test extracts (provided in DMSO) or vehicle for 15 min at 23° C. before the addition of 100 μM inositol-1,3,4,5-tetrakisphosphate (Echelon Biosciences Inc, Salt Lake City, Utah). After 20 min at 37° C. and the amount of inorganic phosphate released assessed by the addition of Malachite Green reagent and absorbance measurement at 650 nm. SHIP2 enzyme was purchased from Echelon Biosciences (Salt Lake City, Utah) and an equivalent amount of inositol phosphatase activity was used in the in vitro enzyme assay. Enzyme data are expressed as the mean of triplicates +/−SEM. Experiments were performed at least 3 times. (FIGS. 7A and 7B).

J774.1a macrophage cells [1] = test: Macrophage TNF-α production (Assay 2); format: cell-based; conditions: 10 μg/mL test compound, 100 ng/mL LPS, ELISA; also: key: a ‘+’ indicates a positive result for desired activity; a ‘−’ indicates a negative result for desired activity
Description: Assay 2) Macrophage TNF-α production. J774.1a macrophage cells were treated with 10 μg/mL of test compound dissolved in solvent (e.g. cyclodextran) for 40 minutes prior to the addition of 100 ng/mL LPS. Culture supernatants were collected after 2 hr and 5 hr for TNF-α determination by ELISA.

J774.1a macrophage cells [2] = test: Macrophage TNF-α NO assay (Assay 3); format: cell-based; conditions: 10 μg/ml test compound, LPS, 24 hr, Griess reagent; also: key: a ‘+’ indicates a positive result for desired activity; a ‘−’ indicates a negative result for desired activity
Description: Assay 3) Macrophage TNF-α NO assay. J774.1a macrophage cells were treated with 10 μg/ml of test compound dissolved in solvent for 40 minutes prior to the addition of LPS. Culture supernatants were collected after 24 hr. for determination of NO concentration using the Griess reagent.

MM cell lines = test: In vitro Multiple Myeloma (MM) assay (Assay 7); format: cell-based; also: key: a ‘+’ indicates a positive result for desired activity; a ‘−’ indicates a negative result for desired activity
Description: Assay 7) In vitro Multiple Myeloma (MM) assay. The ability of SHIP activators to reduce tumor cell survival was assessed in MM cell lines treated with the test compound. The lines OPM1, OPM2, MM.1S and RPMI 8226 were plated at a density of 1×10^5 cells/mL in 200 μL of medium with various concentrations of the test compound, and viable cell numbers were determined on day 3 and day 5 by trypan blue exclusion. The lines RPMI 8226 and U266 were plated at a density of 1×10^6 cells/mL in 250 μL of medium with various concentrations of the test compound. At day 4, the medium of each culture was replaced by fresh medium containing the same concentration of test compound. At day 7, the viable cell number of each culture was determined by trypan blue exclusion.
MM cell lines were cultured in 96 well plates seeded with 3×10^4 cells suspended in 200 μL of medium along with various concentrations of test compound (and associated cyclodextran vehicle control), with LY294002 serving as a positive control in the experiments. After 24-48 hrs of culture, […] of [3H]-thymidine (GE Healthcare, Baie D'Urfe, Canada) being added for the final 8 hours. Cells were harvested and DNA associated radioactivity was measured via liquid scintillation counting using a Wallac Microbeta counter (Perkin-Elmer; Boston, Mass.).
The ability of SHIP activators to reduce tumor cell survival was assessed in multiple myeloma (MM) cell lines treated with Compound 100 or AQX-016A. The lines OPM1, OPM2, MM.1S and RPMI 8226 were plated at a density of 1×10^5 cells/mL in 200 μL of medium with various concentrations of Compound 100, and viable cell numbers were determined on day 3 and day 5 by trypan blue exclusion. The lines RPMI 8226 and U266 were plated at a density of 1×10^6 cells/mL in 250 μL of medium with various concentrations of AQX-016A. At day 4, the medium of each culture was replaced by fresh medium containing the same concentration of AQX-016A. At day 7, the viable cell number of each culture was determined by trypan blue exclusion. Experiments were performed in triplicate.
Proliferation (DNA synthesis) assays. Proliferation was measured by measuring incorporation of [^3H]-thymidine into cells. MM cell lines were cultured in 96 well plates seeded with 3×10^4 cells suspended in 200 μL, of medium along with various concentrations of Compound 100 or AQX-016A (and associated cyclodextran vehicle control), with LY294002 serving as a positive control in the indicated experiments. After 24-48 hrs of culture, 1 μCi of [^3H]-thymidine (GE Healthcare, Baie D'Urfe, Canada) being added for the final 8 hours. Plates were frozen, which also aided in cell lysis, to terminate the experiments. Cells were then harvested onto glass fibre filters using an automatic cell harvester (TomTech; Orange, Conn.) and DNA associated radioactivity was measured via liquid scintillation counting using a Wallac Microbeta counter (Perkin-Elmer; Boston, Mass.). Wells were set up in triplicate and data is expressed as mean+/−SEM.

Mast cells = test: Stimulation of mast cells by FcεRI crosslinking (Assay 4); format: cell-based; conditions: anti-DNP IgE, DNP-HSA
Description: Assay 4) Stimulation of mast cells by FcåRI crosslinking. Mast cells were pre-loaded overnight in BMMC medium lacking IL-3 with 0.1 μg/ml anti-DNP IgE (SPE-7, Sigma, Oakville, Ont). For calcium flux measurements, cells were incubated with 2 μM fura 2-acetoxymethyl ester (Molecular Probes, Eugene, Oreg.) in Tyrode's buffer at 23° C. for 45 min. Cells were then washed and incubated in the presence of the test compound 30 min prior to stimulation with the indicated concentration of DNP-human serum albumin (DNP-HSA). Calcium influx was monitored by spectrofluorometry as described previously. For analysis of intracellular signaling, cells were pre-loaded with anti-DNP IgE as above, pre-treated with the test compound for 30 min at 37° C. and stimulated with 20 ng/ml DNP-HSA for 5 min. Total cell lysates were then prepared and analyzed for phospho-PKB, phospho-p38^MAPK, phospho-MAPK, Grb-2 (Cell Signalling, Mississauga, Ont) and SHIP^6 by immunoblot analysis.

Compound | Assay Number 1: SHIP enzyme assay (SHIP enzyme) | Assay Number 2: Macrophage TNF-α production (J774.1a macrophage cells [1]) | Assay Number 3: Macrophage NO (J774.1a macrophage cells [2]) | Assay Number 7: In vitro Multiple Myeloma (MM) assay (MM cell lines) | Assay Number 4: Stimulation of mast cells by FcεRI crosslinking (Mast cells)
Cc1cc(O)c(O)c2c1[C@@]1(C)CCC3C(C)(C)CCC[C@]3(C)[C@H]1C2 (stereo partly drawn) [8 Epi 16A] | + |  |  |  | 
COC(=O)c1cc(O)c(O)c2c1[C@@]1(C)CCC3C(C)(C)CCC[C@]3(C)[C@H]1C2 (stereo partly shown) [Compound 8-Epipelorol, 8-Epipelorol] | + |  |  |  | 
COC(=O)c1cc(O)c(O)c2c1[C@]1(C)CCC3C(C)(C)CCC[C@]3(C)[C@@H]1C2 (stereo partly shown) [Compound 9-Epipelorol, 9-Epipelorol] | + |  |  |  | 
CCc1cc(O)c(O)c2c1[C@]1(C)CCC3C(C)(C)CCC[C@]3(C)[C@H]1C2 (stereo partly shown) [Compound 18A, reference compound] | + | + | + |  | 
Cc1cc2c(cc1O)C[C@@H]1[C@@]3(C)CCCC(C)(C)[C@@H]3CC[C@@]21C [Compound 101] |  | + | + | + | 
CC(=O)Oc1cc(C)c2c(c1)C[C@H]1[C@@]2(C)CCC2C(C)(C)CCC[C@@]21C (stereo partly shown) [Compound 102] |  | + | + |  | 
Cc1cc(OC(=O)C(N)CCCNC(=N)N)cc2c1[C@]1(C)CCC3C(C)(C)CCC[C@]3(C)[C@H]1C2 (stereo partly shown) [Compound 105] |  | + | + |  | 
Cc1cc(OP(=O)(O)O)cc2c1[C@]1(C)CCC3C(C)(C)CCC[C@]3(C)[C@H]1C2 (stereo partly shown) [Compound 109] |  | − | + | + | 
Cc1cc(OC(=O)C(CC(=O)O)NC(=O)CCC(=O)O)cc2c1[C@]1(C)CCC3C(C)(C)CCC[C@]3(C)[C@H]1C2 (stereo partly shown) [Compound 114] |  | + | + |  | 
CC1(C)CCC[C@]2(C)[C@H]3Cc4cc(O)cc(O)c4[C@]3(C)CC[C@@H]12 [Compound 115] |  |  |  | + | 
COc1cc(O)cc2c1[C@]1(C)CC[C@H]3C(C)(C)CCC[C@]3(C)[C@H]1C2 [Compound 117] |  | + | + | + | 
COc1ccc2c(c1O)C[C@@H]1[C@@]3(C)CCCC(C)(C)[C@@H]3CC[C@@]21C [Compound 118] |  | − | + | + | 
CC1(C)CCC[C@]2(C)[C@H]3Cc4cc(O)ccc4[C@]3(C)CC[C@@H]12 [Compound 121] |  | + | + | + | 
Cc1cc(O)c2c(c1)C[C@@H]1[C@@]3(C)CCCC(C)(C)[C@@H]3CC[C@@]21C [Compound 122] |  | − | + | + | 
Cc1cc(OC(=O)C(N)Cc2cnc[nH]2)cc2c1[C@]1(C)CCC3C(C)(C)CCC[C@]3(C)[C@H]1C2 (stereo partly shown) [Compound 123] |  | + | + |  | 
Cc1cc(O)cc2c1[C@]1(C)CCC3C(C)(C)CCC[C@]3(C)[C@@H]1C2 (stereo partly shown) [Compound 124] |  | + | + | + | +
COc1cc(C)c2c(c1O)C[C@@H]1[C@@]3(C)CCCC(C)(C)[C@@H]3CC[C@@]21C [Compound 129] |  | − | + |  | 
CC1(C)CCC[C@@]2(C)C1CC[C@@]1(C)c3c(C(=O)O)cc(O)c(O)c3C[C@@H]12 (stereo partly shown) [Desmethylpelorol, reference compound] | + | + | + |  | 
COC(=O)c1cc(O)c(O)c2c1[C@]1(C)CCC3C(C)(C)CCC[C@]3(C)[C@H]1C2 (stereo partly shown) [Pelorol, pelorol] | + |  |  |  | 
